According to PubChem BioAssay AID256 (DTP/NCI, 2004):
Inconclusive results and toxic doses are left out. How the source made its calls: active means survival T/C of 150% or more; inactive means T/C below 125% in these data.

Test system: CD2F1 mice, L1210 leukemia ip, survival T/C
Experiment: NCI In Vivo Anticancer Drug Screen. Data for tumor model L1210 Leukemia (intraperitoneal) in CD2F1 (CDF1) mice
Conditions: higher = longer survival
How it was run: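 Antitumor effect is scored in animals hosting a serially transplanted tumor. Values compare compound-dosed animals against vehicle-only controls as a simple quotient.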

[1] = endpoint: mean survival time, dose: 25.0 mg/kg/injection, schedule: Q01DX009 (ip), vehicle: saline with Tween-80
[2] = endpoint: mean survival time, dose: 50.0 mg/kg/injection, schedule: Q01DX009 (ip), vehicle: saline with Tween-80
[3] = endpoint: mean survival time, dose: 100.0 mg/kg/injection, schedule: Q01DX001 (ip), vehicle: saline
[4] = endpoint: mean survival time, dose: 200.0 mg/kg/injection, schedule: Q01DX001 (ip), vehicle: saline
[5] = endpoint: mean survival time, dose: 400.0 mg/kg/injection, schedule: Q01DX001 (ip), vehicle: saline

Measured: T/C

COC(=O)CC1(O)C=CC(=O)C=C1
inactive: endpoint: mean survival time, dose: 0.75 mg/kg/injection, schedule: Q01DX009 (ip), vehicle: Klucel (hydroxypropylcellulose) (HPC) 104 % of control | endpoint: mean survival time, dose: 1.5 mg/kg/injection, schedule: Q01DX009 (ip), vehicle: Klucel (hydroxypropylcellulose) (HPC) 98 % of control | endpoint: mean survival time, dose: 3.0 mg/kg/injection, schedule: Q01DX009 (ip), vehicle: Klucel (hydroxypropylcellulose) (HPC) 95 % of control | endpoint: mean survival time, dose: 6.0 mg/kg/injection, schedule: Q01DX009 (ip), vehicle: Klucel (hydroxypropylcellulose) (HPC) 92 % of control | endpoint: mean survival time, dose: 12.0 mg/kg/injection, schedule: Q01DX009 (ip), vehicle: Klucel (hydroxypropylcellulose) (HPC) 95 % of control

Cc1nc2ccccc2[nH]1
inactive: endpoint: mean survival time, dose: 100.0 mg/kg/injection, schedule: Q01DX001 (ip), vehicle: saline with Tween-80 102 % of control | endpoint: mean survival time, dose: 200.0 mg/kg/injection, schedule: Q01DX001 (ip), vehicle: saline with Tween-80 105 % of control

CCCC(=O)c1cc(O)c(O)cc1O
inactive: endpoint: mean survival time, dose: 12.5 mg/kg/injection, schedule: Q01DX009 (ip), vehicle: saline with Tween-80 111 % of control | [1] 93 % of control | [2] 97 % of control

C=CC1=CC(=O)OC1=O
inactive: endpoint: mean survival time, dose: 1.25 mg/kg/injection, schedule: Q01DX001 (ip), vehicle: saline 91 % of control | endpoint: mean survival time, dose: 2.5 mg/kg/injection, schedule: Q01DX001 (ip), vehicle: saline 88 % of control | endpoint: mean survival time, dose: 5.0 mg/kg/injection, schedule: Q01DX001 (ip), vehicle: saline 89 % of control | endpoint: mean survival time, dose: 10.0 mg/kg/injection, schedule: Q01DX001 (ip), vehicle: saline 89 % of control

OCCN(CCO)N=Nc1c(F)cc(F)cc1F
inactive: endpoint: mean survival time, dose: 25.0 mg/kg/injection, schedule: Q01DX005 (ip), vehicle: other 98 % of control | endpoint: mean survival time, dose: 25.0 mg/kg/injection, schedule: Q04DX003 (ip), vehicle: water 94 % of control | endpoint: mean survival time, dose: 50.0 mg/kg/injection, schedule: Q01DX005 (ip), vehicle: other 101 % of control | endpoint: mean survival time, dose: 50.0 mg/kg/injection, schedule: Q04DX003 (ip), vehicle: water 94 % of control | endpoint: mean survival time, dose: 100.0 mg/kg/injection, schedule: Q01DX005 (ip), vehicle: other 101 % of control | endpoint: mean survival time, dose: 100.0 mg/kg/injection, schedule: Q04DX003 (ip), vehicle: water 97 % of control | endpoint: mean survival time, dose: 200.0 mg/kg/injection, schedule: Q01DX005 (ip), vehicle: other 102 % of control | endpoint: mean survival time, dose: 200.0 mg/kg/injection, schedule: Q04DX003 (ip), vehicle: water 97 % of control | endpoint: mean survival time, dose: 400.0 mg/kg/injection, schedule: Q01DX005 (ip), vehicle: other 112 % of control | endpoint: mean survival time, dose: 400.0 mg/kg/injection, schedule: Q04DX003 (ip), vehicle: water 100 % of control

N#CC(C#N)=C/C=C/c1cccc([N+](=O)[O-])c1
inactive: endpoint: mean survival time, dose: 3.12 mg/kg/injection, schedule: Q01DX009 (ip), vehicle: Klucel (hydroxypropylcellulose) (HPC) 101 % of control | endpoint: mean survival time, dose: 6.25 mg/kg/injection, schedule: Q01DX009 (ip), vehicle: Klucel (hydroxypropylcellulose) (HPC) 109 % of control | endpoint: mean survival time, dose: 12.5 mg/kg/injection, schedule: Q01DX009 (ip), vehicle: Klucel (hydroxypropylcellulose) (HPC) 104 % of control

c1ccc(C(Nc2ncnc3nncnc23)c2ccccc2)cc1
inactive: endpoint: mean survival time, dose: 75.0 mg/kg/injection, schedule: Q01DX001 (ip), vehicle: other 94 % of control

C=C(c1ccc(OC)c(OC)c1)c1nccc2cc(OC)c(OC)cc12
inactive: endpoint: median survival time, dose: 50.0 mg/kg/injection, schedule: Q01DX009 (ip), vehicle: Klucel (hydroxypropylcellulose) (HPC) 101 % of control | endpoint: median survival time, dose: 100.0 mg/kg/injection, schedule: Q01DX009 (ip), vehicle: Klucel (hydroxypropylcellulose) (HPC) 89 % of control | endpoint: median survival time, dose: 200.0 mg/kg/injection, schedule: Q01DX009 (ip), vehicle: Klucel (hydroxypropylcellulose) (HPC) 95 % of control | endpoint: median survival time, dose: 400.0 mg/kg/injection, schedule: Q01DX009 (ip), vehicle: Klucel (hydroxypropylcellulose) (HPC) 97 % of control | endpoint: median survival time, dose: 800.0 mg/kg/injection, schedule: Q01DX009 (ip), vehicle: Klucel (hydroxypropylcellulose) (HPC) 108 % of control

OCn1c2ccccc2c2ccccc21
inactive: endpoint: mean survival time, dose: 100.0 mg/kg/injection, schedule: Q04DX003 (ip), vehicle: saline with Tween-80 89 % of control | endpoint: mean survival time, dose: 200.0 mg/kg/injection, schedule: Q04DX003 (ip), vehicle: saline with Tween-80 87 % of control | endpoint: mean survival time, dose: 400.0 mg/kg/injection, schedule: Q04DX003 (ip), vehicle: saline with Tween-80 87 % of control

O=S1CCS(=O)CC1 (configuration not stated)
inactive: [3] 96 % of control | [4] 93 % of control | [5] 98 % of control

c1ccc(COC2CN3CCC2CC3)cc1 (configuration not stated)
inactive: [1] 100 % of control | [2] 100 % of control

CC1C=CC(C)S1 (configuration not stated)
inactive: [3] 100 % of control | endpoint: mean survival time, dose: 100.0 mg/kg/injection, schedule: Q04DX002 (ip), vehicle: saline with Tween-80 101 % of control | [4] 101 % of control | endpoint: mean survival time, dose: 200.0 mg/kg/injection, schedule: Q04DX002 (ip), vehicle: saline with Tween-80 104 % of control | [5] 105 % of control | endpoint: mean survival time, dose: 400.0 mg/kg/injection, schedule: Q04DX002 (ip), vehicle: saline with Tween-80 112 % of control
